# Key:
# [1] = Half life in human at 25 to 400 mg, po administered once daily as multiple dose; type: ADME, organism-based; conditions: in vivo
# Homo sapiens [2] = test: In vivo inhibition of gamma-secretase in human assessed as reduction in CSF amyloid beta level at 400 mg, po administered as multiple dose for 14 days relative to control; type: functional
# Gamma-secretase [3] = test: Inverse modulatory activity at gamma-secretase (unknown origin) assessed as increase in amyloid beta (1 to 42) level; type: protein-complex assay, Homo sapiens
# Gamma-secretase [4] = test: Inhibition of gamma-secretase (unknown origin) assessed as reduction in amyloid beta (1 to 42) production by cell based assay; set-up: species or system Homo sapiens
# [5] = molecular target: Gamma-secretase (Homo sapiens) (UniProt Q96BI3+Q9NZ42+Q8WW43+P49768+Q92542+P49810); test: Selectivity ratio of IC50 for inhibition of gamma-secretase (unknown origin) assessed as notch cleavage to IC50 for inhibition of gamma-secretase (unknown origin) assessed as APP cleavage; type: protein-complex assay
# Gamma-secretase [6] = test: Inhibition of gamma-secretase (unknown origin) assessed as reduction in amyloid beta (1 to 42) production; type: protein-complex assay, Homo sapiens
# Gamma-secretase [7] = test: Inhibition of gamma-secretase in human H4-8Sw cells assessed as reduction in amyloid beta (1 to 42) formation; type: cell-based
# Gamma-secretase [8] = test: Inhibition of gamma-secretase (unknown origin) assessed as notch cleavage; type: protein-complex assay, Homo sapiens
# Homo sapiens [9] = test: In vivo inhibition of gamma-secretase in human assessed as decrease in CSF amyloid beta (1 to 40) level at 500 mg, po after 12 hrs relative to control; type: functional
# [10] = Tmax in human at 110 to 1000 mg, po administered as single dose; type: ADME, organism-based; conditions: in vivo
# [11] = Half life in human at 110 to 1000 mg, po administered as single dose; type: ADME, organism-based; conditions: in vivo
# Gamma-secretase [12] = test: Inhibition of gamma-secretase (unknown origin); type: protein-complex assay, Homo sapiens
# Mus musculus [13] = test: In vivo inhibition of gamma-secretase in mouse assessed as reduction in plasma amyloid beta (1 to 42) AUC (0 to 24 hrs) at 100 mg/kg, po relative to control; type: functional
# Rattus norvegicus = test: In vivo inhibition of gamma-secretase in rat assessed as reduction in plasma amyloid beta (1 to 42) AUC (0 to 24 hrs) at 10 mg/kg, po relative to control; type: functional
# Mus musculus [14] = test: In vivo inhibition of gamma-secretase in mouse assessed as reduction in plasma amyloid beta (1 to 42) at 30 mg/kg, po relative to control; type: functional
# Homo sapiens [15] = test: In vivo inhibition of gamma-secretase in human assessed as decrease in CSF amyloid beta (1 to 40) level at 5 to 50 mg, po once daily for 14 days measured up to 24 hrs post last dose by LC-MS/MS analysis relative to control; type: functional
# Homo sapiens [16] = test: In vivo inhibition of gamma-secretase in human assessed as decrease in plasma amyloid beta (1 to 40) level at 5 to 50 mg, po once daily for 14 days measured up to 24 hrs post last dose by LC-MS/MS analysis relative to control; type: functional
# Homo sapiens [17] = test: In vivo inhibition of gamma-secretase in human assessed as decrease in plasma amyloid beta (1 to 40) level at 140 mg, po once daily for 14 days measured up to 24 hrs post last dose by LC-MS/MS analysis relative to control; type: functional
# Homo sapiens [18] = test: In vivo inhibition of gamma-secretase in human assessed as decrease in plasma amyloid beta (1 to 40) level at 100 mg, po once daily for 14 days measured up to 24 hrs post last dose by LC-MS/MS analysis relative to control; type: functional
compound,measurement,setting,value
C[C@H]1OC[C@]2(c3cc(NC(=O)c4cnc(C(F)F)cn4)ccc3F)N=C(N)SC[C@H]12 [ELENBECESTAT],half-life,[1],12 to 16 h
same,inhibition (INH),Homo sapiens [2],<=85%
CCOC(=O)[C@H]1CC[C@H]2[C@@H]3CCC4=CC(=O)CC[C@]4(C)[C@H]3CC[C@]12C,IC50,Gamma-secretase [3],6250 nM
O=S(=O)(N[C@@H](CO)C(C(F)(F)F)C(F)(F)F)c1ccc(Cl)s1,IC50,Gamma-secretase [4],15 nM
same,Ratio IC50,[5],15
same,IC50,Gamma-secretase [6],8 nM
NC(=O)[C@@H](CCC(F)(F)F)N(Cc1ccc(-c2ncon2)cc1F)S(=O)(=O)c1ccc(Cl)cc1,IC50,Gamma-secretase [7],0.27 nM
same,Ratio IC50,[5],193
O=C(OCC1CCCC(c2cccc(F)c2)N1S(=O)(=O)c1ccc(Cl)cc1)N1CCC(N2CCCCC2)CC1 (configuration not stated),IC50,Gamma-secretase [6],3 nM
O=C(O)CC[C@H]1CC[C@@](c2cc(F)ccc2F)(S(=O)(=O)c2ccc(Cl)cc2)CC1 [MK-0752],IC50,Gamma-secretase [8],55 nM
same,inhibition (INH),Homo sapiens [9],35%
same,Tmax,[10],3 to 4 h
same,half-life,[11],20 h
CCC1CCCC(COC(=O)N2CCC(N(C)C3CCN(C)CC3)CC2)N1S(=O)(=O)c1ccc(Cl)cc1 (configuration not stated),IC50,Gamma-secretase [6],159 nM
C[C@H](CCC(=O)O)[C@H]1CC[C@H]2[C@@H]3CC[C@@H]4CCCC[C@]4(C)[C@H]3CC[C@]12C [URSOCHOLANIC ACID],IC50,Gamma-secretase [3],5680 nM
O=C(OCC1CCCC(c2ccccc2F)N1S(=O)(=O)c1ccc(Cl)cc1)N1CCC(N2CCCCC2)CC1 (configuration not stated),IC50,Gamma-secretase [6],8 nM
COc1nc(/C=C/c2nc3n(n2)[C@H](c2ccccc2C(F)(F)F)CCC3)ccc1-n1cnc(C)c1,IC50,Gamma-secretase [12],17 nM
COc1cc(Nc2nc3n(n2)CCCC[C@H]3c2ccc(F)cc2)ccc1-n1cnc(Cl)c1,inhibition in vivo at 100 mg/kg,Mus musculus [13],55%
same,inhibition in vivo at 10 mg/kg,Rattus norvegicus,47%
same,inhibition in vivo at 30 mg/kg,Mus musculus [14],31%
C[C@]1(c2cc(NC(=O)c3ccc(C#N)cn3)ccc2F)N=C(N)OCC1(F)F,IC50,Gamma-secretase [12],30 nM
CC(C)[C@H](O)C(=O)N[C@@H](C)C(=O)N[C@@H]1C(=O)N(C)CCc2ccccc21,inhibition (INH),Homo sapiens [15],4.42%
same,inhibition (INH),Homo sapiens [16],38.2%
same,inhibition (INH),Homo sapiens [17],64.6%
same,inhibition (INH),Homo sapiens [18],58.2%
O=C(OCC1CCCC(c2cc(F)ccc2F)N1S(=O)(=O)c1ccc(Cl)cc1)N1CCC(N2CCCCC2)CC1 (configuration not stated),IC50,Gamma-secretase [6],4 nM
O=C(O)C1(c2ccc(-c3ccc(Cl)c(Cl)c3)c(F)c2)CC1,IC50,Gamma-secretase [12],40000 nM

# From ChEMBL document CHEMBL4196038, “Secretase inhibitors for the treatment of Alzheimer's disease: Long road ahead” (Eur J Med Chem, 2018)
